Here are results for one compound from ChEMBL document CHEMBL3853318, “Structure-Based Optimization of Potent, Selective, and Orally Bioavailable CDK8 Inhibitors Discovered by High-Throughput Screening” (J Med Chem, 2016).

Data set [1] deals with Cyclin-dependent kinase 8 (Homo sapiens, UniProt P49336). As to the kind of experiment: Inhibition of CDK8 in human 7dF3 cells preincubated for 2 hrs followed by beta-oestradiol addition measured after 24 hrs by luciferase reporter gene assay. Format: cell-based. (In general: A reporter such as luciferase makes a cellular process visible.)
The target of data set [2] is T1, Rho-associated protein kinase 2 (Homo sapiens, UniProt O75116). Description: Inhibition of ROCK-2 (unknown origin) at 1 uM relative to control.
Target sequence in this assay (O75116 whole entry, looked up): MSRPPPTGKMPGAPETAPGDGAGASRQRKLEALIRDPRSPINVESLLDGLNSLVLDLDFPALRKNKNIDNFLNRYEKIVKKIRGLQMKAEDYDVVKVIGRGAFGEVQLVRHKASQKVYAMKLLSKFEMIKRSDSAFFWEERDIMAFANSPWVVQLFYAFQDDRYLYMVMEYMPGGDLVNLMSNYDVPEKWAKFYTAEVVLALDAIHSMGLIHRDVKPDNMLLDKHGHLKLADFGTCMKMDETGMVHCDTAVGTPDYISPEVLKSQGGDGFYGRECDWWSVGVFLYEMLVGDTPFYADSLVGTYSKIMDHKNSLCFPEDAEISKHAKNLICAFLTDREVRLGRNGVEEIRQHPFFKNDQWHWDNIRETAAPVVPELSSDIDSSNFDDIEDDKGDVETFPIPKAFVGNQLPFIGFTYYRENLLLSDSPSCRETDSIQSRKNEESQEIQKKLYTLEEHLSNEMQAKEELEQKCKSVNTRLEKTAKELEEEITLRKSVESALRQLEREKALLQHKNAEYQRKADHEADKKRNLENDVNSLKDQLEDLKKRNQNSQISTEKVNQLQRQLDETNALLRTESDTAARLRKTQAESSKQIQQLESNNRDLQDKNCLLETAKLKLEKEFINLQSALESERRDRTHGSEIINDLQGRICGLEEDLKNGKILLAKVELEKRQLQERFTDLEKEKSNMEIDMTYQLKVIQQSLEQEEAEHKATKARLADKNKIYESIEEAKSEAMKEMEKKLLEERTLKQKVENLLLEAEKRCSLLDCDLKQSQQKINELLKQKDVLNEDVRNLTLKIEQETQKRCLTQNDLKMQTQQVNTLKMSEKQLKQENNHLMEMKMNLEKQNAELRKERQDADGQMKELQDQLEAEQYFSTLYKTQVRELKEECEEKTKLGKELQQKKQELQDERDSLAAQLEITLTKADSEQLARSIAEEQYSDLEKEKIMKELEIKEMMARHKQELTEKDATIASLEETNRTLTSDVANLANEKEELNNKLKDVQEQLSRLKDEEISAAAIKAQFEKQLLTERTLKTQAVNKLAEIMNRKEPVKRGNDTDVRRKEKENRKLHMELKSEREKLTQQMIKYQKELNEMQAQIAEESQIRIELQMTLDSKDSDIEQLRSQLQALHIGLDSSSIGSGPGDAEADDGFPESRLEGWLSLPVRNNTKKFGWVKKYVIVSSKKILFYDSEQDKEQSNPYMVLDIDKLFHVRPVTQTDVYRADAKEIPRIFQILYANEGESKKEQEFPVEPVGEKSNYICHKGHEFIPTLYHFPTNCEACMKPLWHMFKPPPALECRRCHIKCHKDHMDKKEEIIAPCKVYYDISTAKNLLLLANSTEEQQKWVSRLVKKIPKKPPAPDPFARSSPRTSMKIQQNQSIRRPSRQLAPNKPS
Data set [3] has as its target T2, Tyrosine-protein kinase JAK2 (Homo sapiens, UniProt O60674). As to the kind of experiment: Inhibition of JAK2 (unknown origin).
Data set [4] has as its target T3, Tyrosine-protein kinase JAK1 (Homo sapiens, UniProt P23458). As to the kind of experiment: Inhibition of JAK1 (unknown origin).
Data set [5] is described as follows: Intrinsic clearance in mouse liver microsomes at 1 uM preincubated for 5 mins followed by NADPH addition measured after 5 to 30 mins by LC-MS/MS analysis. It is filed as ADME. The note with it: read-out: CLH. For orientation: Liver microsomes are vesicles of endoplasmic reticulum, rich in cytochrome P450 enzymes.
Data set [6] deals with T3, Tyrosine-protein kinase JAK1. As to the kind of experiment: Inhibition of JAK1 (unknown origin) at 1 uM relative to control.
The target of data set [7] is T4, Non-receptor tyrosine-protein kinase TYK2 (Homo sapiens, UniProt P29597). Description: Inhibition of TYK2 (unknown origin) at 1 uM relative to control.
Data set [8] can be described thus: Intrinsic clearance in human liver microsomes at 1 uM preincubated for 5 mins followed by NADPH addition measured after 5 to 30 mins by LC-MS/MS analysis. Format: ADME. The note with it: read-out: CLH.
Data set [9] addresses CDK8/Cyclin C (Homo sapiens, UniProt P49336). As to the kind of experiment: Inhibition of Alexa647 tracer binding to full length recombinant human His-tagged CDK8/cyclin C expressed in Baculovirus expression system preincubated for 20 mins followed by tracer addition and incubated in dark for 60 mins by FRET-based Lanthascreen assay. For orientation: TR-FRET usually uses a lanthanide donor and a delayed reading to cut background.

Data set [10] in a line: Intrinsic clearance in rat liver microsomes at 1 uM preincubated for 5 mins followed by NADPH addition measured after 5 to 30 mins by LC-MS/MS analysis. Format: ADME. The note with it: read-out: CLH.
Data set [11] has as its target T5, Tyrosine-protein kinase JAK3 (Homo sapiens, UniProt P52333).
T5 sequence (P52333 whole entry): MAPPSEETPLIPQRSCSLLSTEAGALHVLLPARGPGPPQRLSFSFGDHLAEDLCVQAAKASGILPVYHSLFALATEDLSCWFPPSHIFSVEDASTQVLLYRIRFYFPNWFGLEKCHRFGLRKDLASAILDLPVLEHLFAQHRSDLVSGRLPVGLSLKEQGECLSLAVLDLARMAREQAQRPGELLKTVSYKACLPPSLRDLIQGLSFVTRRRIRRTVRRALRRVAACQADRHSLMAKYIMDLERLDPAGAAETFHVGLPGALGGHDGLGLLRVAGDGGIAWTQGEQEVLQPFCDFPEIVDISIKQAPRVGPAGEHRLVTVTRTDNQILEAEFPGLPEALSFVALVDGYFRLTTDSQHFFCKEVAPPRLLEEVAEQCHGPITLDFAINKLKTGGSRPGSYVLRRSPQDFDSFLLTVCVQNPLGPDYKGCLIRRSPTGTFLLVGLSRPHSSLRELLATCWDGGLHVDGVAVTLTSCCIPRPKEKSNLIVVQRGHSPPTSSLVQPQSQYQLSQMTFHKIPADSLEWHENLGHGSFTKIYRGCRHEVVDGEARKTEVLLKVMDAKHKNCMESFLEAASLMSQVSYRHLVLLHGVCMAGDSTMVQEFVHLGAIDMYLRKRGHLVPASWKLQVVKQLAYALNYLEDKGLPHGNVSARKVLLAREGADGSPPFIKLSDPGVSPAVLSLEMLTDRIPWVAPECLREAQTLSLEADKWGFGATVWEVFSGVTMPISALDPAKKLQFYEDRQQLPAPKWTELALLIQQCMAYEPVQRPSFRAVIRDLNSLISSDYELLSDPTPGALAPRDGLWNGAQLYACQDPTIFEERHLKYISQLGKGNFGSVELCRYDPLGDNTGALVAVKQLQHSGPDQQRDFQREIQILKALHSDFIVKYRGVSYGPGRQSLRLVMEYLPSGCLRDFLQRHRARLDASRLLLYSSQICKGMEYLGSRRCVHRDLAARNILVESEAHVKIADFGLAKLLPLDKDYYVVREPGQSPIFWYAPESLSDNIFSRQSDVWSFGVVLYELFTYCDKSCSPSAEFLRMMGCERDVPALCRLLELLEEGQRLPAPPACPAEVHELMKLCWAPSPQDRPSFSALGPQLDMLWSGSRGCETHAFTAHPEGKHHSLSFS
As to the kind of experiment: Inhibition of JAK3 (unknown origin).

The target in data set [12] is T6, Tyrosine-protein kinase JAK3 (Homo sapiens) (UniProt P52333).
T6 sequence (whole entry): T5 sequence (P52333 whole entry)
As to the kind of experiment: Inhibition of JAK3 (unknown origin) at 1 uM relative to control.

For data set [13], the target named is T2, Tyrosine-protein kinase JAK2. Description: Inhibition of JAK2 (unknown origin) at 1 uM relative to control.
The nature of data set [14]: Apparent permeability from apical to basolateral side in human Caco2 cells at 1 uM after 2 hrs by Transwell assay. To be noted: Caco-2. It is filed as ADME, cell-based.
Data set [15] deals with T4, Non-receptor tyrosine-protein kinase TYK2. As to the kind of experiment: Inhibition of TYK2 (unknown origin).
Data set [16] concerns the target T1, Rho-associated protein kinase 2. As to the kind of experiment: Inhibition of ROCK-2 (unknown origin).
Target sequence in this assay (O75116 whole entry): as the sequence (O75116 whole entry, looked up) above
Data set [17] in a line: Efflux ratio of permeability in human Caco2 cells at 1 uM after 2 hrs by Transwell assay. It is filed as ADME, cell-based. The note with it: Caco-2.

The structures appear in SMILES notation.

In general, IC50 refers to the concentration that inhibits the measured activity by half. In general, inhibition refers to the relative decrease from the control value, in per cent. A high value points to strong suppression. By Papp A→B is commonly meant the apparent permeability from the apical to the basolateral side of a cell layer. As a reminder, the efflux ratio is the permeability from basolateral to apical divided by that in the opposite direction, in the common usage.

T4 sequence (P29597 whole entry): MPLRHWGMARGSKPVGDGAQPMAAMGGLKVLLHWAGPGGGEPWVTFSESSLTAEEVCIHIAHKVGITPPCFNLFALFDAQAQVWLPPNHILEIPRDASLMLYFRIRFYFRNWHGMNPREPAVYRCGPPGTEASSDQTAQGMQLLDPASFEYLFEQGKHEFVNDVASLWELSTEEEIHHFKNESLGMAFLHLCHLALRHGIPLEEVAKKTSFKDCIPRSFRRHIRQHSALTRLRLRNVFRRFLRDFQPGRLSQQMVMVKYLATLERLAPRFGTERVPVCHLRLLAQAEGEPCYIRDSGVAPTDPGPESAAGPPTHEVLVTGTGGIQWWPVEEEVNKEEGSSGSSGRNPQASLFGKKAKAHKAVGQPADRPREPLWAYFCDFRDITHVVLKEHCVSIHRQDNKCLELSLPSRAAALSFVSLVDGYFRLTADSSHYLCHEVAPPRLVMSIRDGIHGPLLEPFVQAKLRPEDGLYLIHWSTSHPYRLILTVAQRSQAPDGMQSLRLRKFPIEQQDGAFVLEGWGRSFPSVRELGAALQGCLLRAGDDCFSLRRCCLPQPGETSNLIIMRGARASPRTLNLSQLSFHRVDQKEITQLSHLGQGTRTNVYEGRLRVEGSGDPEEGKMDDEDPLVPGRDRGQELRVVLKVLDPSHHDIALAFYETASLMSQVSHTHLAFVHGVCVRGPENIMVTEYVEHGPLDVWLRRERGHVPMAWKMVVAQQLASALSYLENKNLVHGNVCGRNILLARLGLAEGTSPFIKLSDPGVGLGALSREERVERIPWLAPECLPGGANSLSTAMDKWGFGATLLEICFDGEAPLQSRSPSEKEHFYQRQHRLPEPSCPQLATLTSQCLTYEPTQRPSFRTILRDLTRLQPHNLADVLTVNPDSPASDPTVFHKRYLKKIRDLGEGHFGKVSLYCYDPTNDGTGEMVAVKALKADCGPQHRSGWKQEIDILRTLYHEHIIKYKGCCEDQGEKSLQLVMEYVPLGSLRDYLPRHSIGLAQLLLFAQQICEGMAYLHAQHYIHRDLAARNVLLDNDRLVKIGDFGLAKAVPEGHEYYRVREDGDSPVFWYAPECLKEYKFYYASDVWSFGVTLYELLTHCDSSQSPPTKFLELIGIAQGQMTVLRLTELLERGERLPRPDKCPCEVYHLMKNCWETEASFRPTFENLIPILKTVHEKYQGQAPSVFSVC
T2 sequence (O60674 whole entry): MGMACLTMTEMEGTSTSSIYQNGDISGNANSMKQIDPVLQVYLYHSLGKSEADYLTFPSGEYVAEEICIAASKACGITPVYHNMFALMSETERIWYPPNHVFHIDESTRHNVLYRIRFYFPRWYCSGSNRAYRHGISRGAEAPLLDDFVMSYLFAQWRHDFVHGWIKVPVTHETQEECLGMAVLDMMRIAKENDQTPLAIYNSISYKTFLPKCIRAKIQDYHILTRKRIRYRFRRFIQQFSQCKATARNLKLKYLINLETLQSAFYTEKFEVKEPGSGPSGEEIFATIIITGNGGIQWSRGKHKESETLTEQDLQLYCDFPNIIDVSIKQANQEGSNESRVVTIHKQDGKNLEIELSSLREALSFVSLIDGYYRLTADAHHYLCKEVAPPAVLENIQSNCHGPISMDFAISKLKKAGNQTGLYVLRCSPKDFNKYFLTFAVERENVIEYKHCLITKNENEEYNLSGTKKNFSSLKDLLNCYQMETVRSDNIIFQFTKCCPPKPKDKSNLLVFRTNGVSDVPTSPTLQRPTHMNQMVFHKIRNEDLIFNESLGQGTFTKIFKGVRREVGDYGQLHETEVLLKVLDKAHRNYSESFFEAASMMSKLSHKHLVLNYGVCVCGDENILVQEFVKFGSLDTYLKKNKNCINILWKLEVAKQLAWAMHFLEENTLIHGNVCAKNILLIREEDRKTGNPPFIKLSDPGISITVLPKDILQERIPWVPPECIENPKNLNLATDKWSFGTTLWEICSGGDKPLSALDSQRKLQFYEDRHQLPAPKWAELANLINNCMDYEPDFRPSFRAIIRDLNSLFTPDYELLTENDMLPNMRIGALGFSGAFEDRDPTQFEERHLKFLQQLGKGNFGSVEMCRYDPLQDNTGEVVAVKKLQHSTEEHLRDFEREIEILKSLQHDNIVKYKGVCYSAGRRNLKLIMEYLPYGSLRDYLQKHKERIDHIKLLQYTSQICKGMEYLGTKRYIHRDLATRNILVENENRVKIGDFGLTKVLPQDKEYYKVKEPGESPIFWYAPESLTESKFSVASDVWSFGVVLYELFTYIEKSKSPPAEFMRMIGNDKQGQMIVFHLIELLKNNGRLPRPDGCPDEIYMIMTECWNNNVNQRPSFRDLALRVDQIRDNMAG
T3 sequence (P23458 whole entry): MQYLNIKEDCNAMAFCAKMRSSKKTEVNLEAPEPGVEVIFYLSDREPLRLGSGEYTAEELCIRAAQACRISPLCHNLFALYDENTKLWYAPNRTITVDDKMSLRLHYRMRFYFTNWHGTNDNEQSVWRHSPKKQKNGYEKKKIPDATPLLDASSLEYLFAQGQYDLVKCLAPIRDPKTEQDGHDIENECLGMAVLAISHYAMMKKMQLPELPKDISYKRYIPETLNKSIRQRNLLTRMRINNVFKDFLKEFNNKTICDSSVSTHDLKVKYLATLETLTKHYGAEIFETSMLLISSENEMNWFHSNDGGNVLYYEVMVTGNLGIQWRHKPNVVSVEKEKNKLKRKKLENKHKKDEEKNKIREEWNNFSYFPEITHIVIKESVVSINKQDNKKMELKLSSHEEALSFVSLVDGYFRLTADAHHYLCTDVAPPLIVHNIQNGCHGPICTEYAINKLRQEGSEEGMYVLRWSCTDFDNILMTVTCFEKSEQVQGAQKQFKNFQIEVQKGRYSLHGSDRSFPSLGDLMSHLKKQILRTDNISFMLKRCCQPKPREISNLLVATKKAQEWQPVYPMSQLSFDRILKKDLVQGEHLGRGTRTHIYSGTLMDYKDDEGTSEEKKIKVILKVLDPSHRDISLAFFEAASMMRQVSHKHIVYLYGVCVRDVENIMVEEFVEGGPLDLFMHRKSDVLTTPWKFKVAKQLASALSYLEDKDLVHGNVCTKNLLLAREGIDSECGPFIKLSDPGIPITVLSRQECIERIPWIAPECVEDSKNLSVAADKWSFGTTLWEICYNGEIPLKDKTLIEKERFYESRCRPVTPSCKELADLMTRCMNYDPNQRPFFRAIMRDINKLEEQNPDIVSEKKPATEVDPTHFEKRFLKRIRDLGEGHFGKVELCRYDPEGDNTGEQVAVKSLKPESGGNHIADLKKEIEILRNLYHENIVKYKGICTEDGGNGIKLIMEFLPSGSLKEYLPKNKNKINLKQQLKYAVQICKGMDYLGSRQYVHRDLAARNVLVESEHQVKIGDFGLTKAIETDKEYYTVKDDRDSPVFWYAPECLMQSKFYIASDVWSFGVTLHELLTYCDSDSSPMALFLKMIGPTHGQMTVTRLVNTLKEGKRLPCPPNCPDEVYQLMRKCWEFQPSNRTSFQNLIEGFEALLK

On to `Nc1n[nH]c2ccc(C(=O)N3CCC[C@H]3c3ccc(Cl)cc3)cc12`, for which the IC50 came to 28 nM in data set [1]; 286 nM in data set [3]; 90 nM in [4]; 4.9 nM in data set [9]; 219 nM in data set [11]; 279 nM in data set [15]. In addition, inhibition in data set [16] was half-maximal at 1330 nM (IC50). Moreover, the inhibition in data set [2] was found to be 42%; in data set [6], 86%; in data set [7], 70%; in data set [12], 79%; in [13] it was 84%. The results for the microsomal CLint at 1 µM in data set [5], in data set [8] and in [10] were 10 µL/min/mg, 23 µL/min/mg and 10 µL/min/mg, respectively. Moreover, in data set [14], the apparent permeability from apical to basolateral (Papp A→B) at 2 h, 1 µM was found to be 33.7 ×10⁻⁶ cm/s. In addition, the efflux ratio at 2 h, 1 µM in [17] worked out at 2.2.
